Reference: patent US20040137455A1, “Diagnosis of cancer or benign tumor using the aberrant expression product of the klk4 gene” (priority 2001, published 2004)

Legend:
[1] = tested on: K4 protein in the KLE cell line; assay: Western analysis of K4 protein levels in KLE cells after steroid treatment; format: cell-based, human; settings: KLE endometrial cancer cell line, 10 nmol/L steroid, 48 h, 200 μg intracellular protein
Protocol: The endometrial cancer cell lines, Ishikawa (well differentiated), HEC1A, HEC1B, RL95-2 (moderately differentiated) and KLE (poorly differentiated) and the prostate cancer cell line LNCaP, used for a control, were obtained from the American Type Culture Collection, Rockville, Md. Prostate and kidney control tissue was obtained from Royal Brisbane Hospital and Princess Alexandra Hospital respectively. All cell lines were cultured in DMEM (Life Technologies, Rockville, Md.) with 10% FCS, 50 U/mL Penicillin G and 50 μg/mL Streptomycin (CSL Biosciences, Melbourne, Australia) at 37 C and 5% CO2. The regulation studies were performed in triplicate in the KLE cell line using phenol red and FCS-free media. After 24 h, fresh media was supplemented with 10 nmol/L 17β-estradiol or progesterone, (Sigma Chemical Company, St Louis, Mo.) and the cells were maintained for 48 h with these steroids. In addition, […] progesterone was added to one group of oestrogen-treated cells after 24 h. […] Detection was determined using X-ray film and visualisation of the chemiluminescence signal. Fold changes in the level of signal were assessed using the Hewlett Packard Scan Jet IICX and ImagQuant™ 4.21A software (Molecular Dynamics, Amersham)

[2] = tested on: hK4 intracellular levels in OVCAR-3; assay: Western blot and densitometry of hK4 intracellular levels in OVCAR-3 cells (oestrogen regulation); format: cell-based, human
Text: Normal ovary and ovarian tumour samples were obtained at surgery from women who underwent laparotomy for benign and malignant conditions in the Department of Obstetrics and Gynaecology at the Royal Women's Hospitals and Monash Medical Centre. Ethics approval was obtained from the respective institutional Ethics Committees and informed consent was obtained from all patients. Epithelial cells from normal, benign and malignant ovaries were isolated from some of these tissue samples and the primary cultured cells were grown in M199 (Sigma, St. Louis, Mo., USA) and MCDB 105 (Sigma) media supplemented with 10% FCS and 10 ng/mL human epidermal growth factor (Boehringer Mannheim, Germany) (17). The ovarian cancer cell lines, that were used in this study, were derived from late stage serous carcinomas with well (PEO14 and OAW42), moderate (SKOV-3 and OVCAR-3) or poor (JAM, CI-80-13S, PEO1 and PEO4) differentiation. SKOV-3 and OVCAR-3 were from American Type Culture Collection, and the remainder have been described previously (18, 19). These cell lines were grown in RPMI (Life Technologies, Inc., Gaithersburg. MD, USA) supplemented with 10% FCS. For the oestrogen regulation study, OVCAR-3 cells were grown to 50% confluency. […]

SMILES | levels of K4 protein elevated compared to the control [1] | effect on intracellular hK4 levels (densitometry of Western blot) ([2]; OVCAR-3, 100 nM, over 30 hrs) | up-regulation of hK4 intracellular levels ([2]; OVCAR-3 ovarian carcinoma cell line, 100 nM, 8-30 hr, time dependent)
C[C@]12CC[C@@H]3c4ccc(O)cc4CC[C@H]3[C@@H]1CC[C@@H]2O [estradiol, 17β-estradiol] | 16 fold | up-regulation | 1.5-4 fold
CC(=O)[C@H]1CC[C@H]2[C@@H]3CCC4=CC(=O)CC[C@]4(C)[C@H]3CC[C@]12C [progesterone] | 27 fold |  | 
